pIC50: −log10 of the molar value. Like-named read-outs stand apart in the source and are kept apart here.
Columns and labels:
[1] = tested on: 647V cells; assay: High throughput proliferation (HTP) assay; format: cell-based; conditions: high throughput proliferation, read-out: CREBBP HTP IC50
Source text: The following example describes methods and materials relating to a high throughput proliferation (HTP) assay. IC50 values (micromolar) are summarized in Table 1, Table 2, and Table 3 under the column labeled: “CREBBP HTP IC50 (micromolar).”
MATERIALS: 647V cell line, Dulbecco's MEM, penicillin-streptomycin, heat inactivated fetal bovine serum, D-PBS, and CellTiter-Glo were commercially available.
647V adherent cells were maintained in complete growth medium (Dulbecco's MEM supplemented with 15% v/v heat inactivated fetal bovine serum) and cultured at 37° C. under 5% CO2.
METHOD: Measurement of the effect of compound in High Throughput Proliferation (HTP) assays was performed as follows: Exponentially growing 647V cells were plated, in triplicate, in 384-well plates at the appropriate cell density in a final volume of 50 μl. Cells were incubated in the presence of increasing concentrations of compound. Viable cell number was determined at day 7 by addition of 35 μl CellTiter-Glo to each well of the plate, incubated in the dark for 30 minutes, and read on a PerkinElmer EnVision instrument to enumerate the number of cells.

[2] = target: T1, CREBBP (1084-1701) (Homo sapiens, UniProt Q92793); assay: Biochemical assay for CREBBP (1084-1701), SAMDI; conditions: SAMDI, read-out: CREBBP Biochemistry IC50
T1 construct: measured in the following biochemical assay using CREBBP (1084-1701); purchased
How it was run: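 CREBBP (1084-1701) preincubated with compound 30 min at RT, then substrate mix (biotin-H3 11-25 K14R/K23R peptide, acetyl-CoA) added for 30 min at RT. Reaction stopped with formic acid, neutralised with sodium bicarbonate. Peptide acetylation read by SAMDI mass spectrometry to derive IC50.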

[3] = target: T2, EP300 (P300(1048-1664)) (Homo sapiens, UniProt Q09472); assay: Biochemical assay for EP300, SAMDI; conditions: EP300, SAMDI; read-out: EP300 Biochemistry IC50
T2 construct: P300(1048-1664)
T2 sequence (Q09472 1048-1664): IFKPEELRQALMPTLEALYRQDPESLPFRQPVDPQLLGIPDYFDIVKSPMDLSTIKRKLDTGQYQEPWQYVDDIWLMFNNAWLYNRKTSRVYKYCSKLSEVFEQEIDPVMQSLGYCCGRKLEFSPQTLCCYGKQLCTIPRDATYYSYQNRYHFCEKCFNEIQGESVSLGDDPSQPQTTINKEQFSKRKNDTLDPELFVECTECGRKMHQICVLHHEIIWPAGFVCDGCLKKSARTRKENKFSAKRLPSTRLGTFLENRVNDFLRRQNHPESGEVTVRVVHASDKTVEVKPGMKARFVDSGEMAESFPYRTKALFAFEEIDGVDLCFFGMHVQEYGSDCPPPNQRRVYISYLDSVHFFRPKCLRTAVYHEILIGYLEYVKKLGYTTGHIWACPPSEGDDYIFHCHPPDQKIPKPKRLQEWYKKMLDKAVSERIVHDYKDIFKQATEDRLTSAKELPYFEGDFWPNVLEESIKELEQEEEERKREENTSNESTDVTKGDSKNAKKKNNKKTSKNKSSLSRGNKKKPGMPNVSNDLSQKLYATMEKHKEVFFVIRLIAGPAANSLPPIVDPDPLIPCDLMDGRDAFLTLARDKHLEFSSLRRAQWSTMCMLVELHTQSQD
Source text: The following example describes materials and methods relating to a biochemical assay for EP300. IC50 values (micromolar (μM)) are summarized in Table 1, Table 2, and Table 3 under the column labeled: “EP300 Biochemistry IC50 (micromolar).”

[4] = tested on: H3K18Ac in HB-CLS-2 cells; assay: H3K18AC in-cell western (ICW) assay; format: cell-based; conditions: H3K18Ac in-cell western, read-out: CREBBP ICW IC50
How it was run: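 HB-CLS-2 cells seeded 16–24 hours before 2 hr compound treatment at 37° C, 5% CO2, then methanol-fixed. H3K18Ac detected with rabbit monoclonal primary (overnight, 4° C) and 800CW anti-rabbit secondary; DRAQ5 stained DNA. Plates imaged at 700 and 800 nm for integrated intensity; IC50 in μM.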

[5] = Homo sapiens, 647-V, 647V cells

T1 sequence (Q92793 1084-1701): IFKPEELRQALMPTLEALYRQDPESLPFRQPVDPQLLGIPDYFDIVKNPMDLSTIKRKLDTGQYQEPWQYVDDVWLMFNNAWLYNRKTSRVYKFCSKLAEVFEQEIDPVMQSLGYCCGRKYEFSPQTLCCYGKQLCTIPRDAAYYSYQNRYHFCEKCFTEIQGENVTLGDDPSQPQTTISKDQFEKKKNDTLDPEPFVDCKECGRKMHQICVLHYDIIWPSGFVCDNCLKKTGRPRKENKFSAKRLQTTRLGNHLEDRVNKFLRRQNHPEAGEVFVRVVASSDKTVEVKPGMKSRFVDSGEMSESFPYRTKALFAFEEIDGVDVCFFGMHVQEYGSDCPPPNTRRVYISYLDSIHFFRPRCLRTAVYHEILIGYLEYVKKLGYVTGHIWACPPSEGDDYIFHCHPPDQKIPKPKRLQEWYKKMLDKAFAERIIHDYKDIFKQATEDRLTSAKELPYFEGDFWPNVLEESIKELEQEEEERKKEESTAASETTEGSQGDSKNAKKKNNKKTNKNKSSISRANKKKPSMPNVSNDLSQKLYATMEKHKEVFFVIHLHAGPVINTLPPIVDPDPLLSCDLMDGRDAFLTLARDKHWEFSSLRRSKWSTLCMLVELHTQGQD

Row | SMILES | pIC50 ([1]; Homo sapiens, 647-V) | pIC50 [2] | pIC50 [3] | pIC50 [4] | pIC50 [1] | pIC50 ([4]; HB-CLS-2 cells) | pIC50 ([1]; 647V cells) | pIC50 [1, 5]
1 | CCn1ncc(CN(C)C(=O)c2nc(-c3cc4c(C)[nH]nc4cc3Cl)nc3ccc(Cl)cc23)c1C [Compound 1] | 7.70 | 8.48 | 8.68 | 7.57 |  |  |  | 
2 | CCn1ncc(CN(C)C(=O)c2nc(-c3ccc(OCCCNC)c(C)c3Cl)nc3ccc(Cl)cc23)c1C [Compound 2] | 7.77 | 7.66 | 8.30 | 7.47 |  |  |  | 
3 | CCn1ncc(CN(C)C(=O)c2nc(-c3cc(Cl)c4nc[nH]c4c3)nc3ccc(COC)cc23)c1C [Compound 4] | 7.43 | 7.92 | 8.43 | 7.24 |  |  |  | 
4 | CCn1ncc(CN(C)C(=O)c2nc(-c3cc(NCCNC)cc(OC)c3)nc3ccc(Cl)cc23)c1C [Compound 5] | 7.46 | 7.80 | 7.96 | 7.22 |  |  |  | 
5 | CCn1ncc(CN(C)C(=O)c2nc(-c3cc4n[nH]cc4cc3Cl)nc3ccc(Cl)cc23)c1C [Compound 7] | 7.18 | 8.02 | 8.28 | 7.11 |  |  |  | 
6 | CCn1ncc(CN(C)C(=O)c2nc(-c3cc(C)nc(NCCNC)c3)nc3ccc(Cl)cc23)c1C [Compound 8] | 7.38 | 7.48 | 7.59 | 7.11 |  |  |  | 
7 | CCn1ncc(CN(C)C(=O)c2nc(-c3cc(C#N)cc(NCCNC)c3)nc3ccc(Cl)cc23)c1C [Compound 9] | 7.29 | 7.82 | 7.96 | 7.05 |  |  |  | 
8 | CCn1ncc(CN(C)C(=O)c2nc(-c3ccc(OCCCNC)c(C)c3)nc3ccc(Cl)cc23)c1C [Compound 29] | 7.00 | 7.55 |  | 6.64 |  |  |  | 
9 | CCn1ncc(CN(C)C(=O)c2nc(-c3ccc(OCCCNC)c(C)c3)nc3ccc(Cl)cc23)c1C [Compound 36] |  | 7.28 |  | 6.52 | 6.74 |  |  | 
10 | CCn1ncc(CN(C)C(=O)c2nc(-c3ccc4c[nH]nc4c3Cl)nc3ccc(COC)cc23)c1C [Compound 52] | 6.16 | 6.60 |  | 6.28 |  |  |  | 
11 | CCn1ncc(CN(C)C(=O)c2nc(-c3ccc4c[nH]nc4c3Cl)nc3ccc(COC)cc23)c1C [Compound 68] |  | 6.60 |  | 6.10 | 6.16 |  |  | 
12 | CCn1ncc(CN(C)C(=O)c2nc(-c3cccc(Cl)c3)nc3ccc(Cl)cc23)c1C [Compound 71] | 5.92 | 8.03 |  | 6.04 |  |  |  | 
13 | CCn1ncc(CN(C)C(=O)c2cc(-c3ccccc3C#N)nc3ccc(Cl)cc23)c1C [Compound 81] | 5.66 | 5.74 |  | 5.92 |  |  |  | 
14 | CCn1ncc(CN(C)C(=O)c2cc(-c3ccccc3F)nc3ccc(Cl)cc23)c1C [Compound 86] | 5.85 | 6.15 |  | 5.89 |  |  |  | 
15 | CCn1ncc(CN(C)C(=O)c2cc(-c3ccccn3)nc3ccc(Cl)cc23)c1C [Compound 92] | 6.39 | 6.51 |  | 5.77 |  |  |  | 
16 | CCn1ncc(CN(C)C(=O)c2cc(-c3cccc(Cl)c3)nc3ccc(Cl)cc23)c1C [Compound 106] | 5.59 | 6.51 |  | 5.62 |  |  |  | 
17 | CCn1ncc(CN(C)C(=O)c2nc(-c3cccc(Cl)c3)nc3ccccc23)c1C [Compound 130] | 5.19 | 5.70 |  | 5.33 |  |  |  | 
18 | Cc1c(CN(C)C(=O)c2cc(-c3cccc(Cl)c3)nc3ccc(Cl)cc23)cnn1C(C)C [Compound 132] | 5.66 | 6.51 |  | 5.31 |  |  |  | 
19 | CCn1ncc(CN(C)C(=O)c2nc(-c3cncn3C)nc3ccc(Cl)cc23)c1C [Compound 158] |  | 4.85 |  | 5.01 | 5.18 |  |  | 
20 | CCN(Cc1cnn(CC)c1C)C(=O)c1cc(-c2cccc(Cl)c2)nc2ccc(Cl)cc12 [Compound 175] | 5.03 | 5.28 |  | 4.82 |  |  |  | 

Row | SMILES | pIC50 ([1]; Homo sapiens, 647-V) | pIC50 [2] | pIC50 [3] | pIC50 [4] | pIC50 [1] | pIC50 ([4]; HB-CLS-2 cells) | pIC50 ([1]; 647V cells) | pIC50 [1, 5]
21 | CCn1ncc(CN(C)C(=O)c2nc(-c3ccc(OCCCN(C)C(=O)OC(C)(C)C)c(C)c3)nc3ccc(Cl)cc23)c1C [Compound 183] |  | 4.74 | 4.38 |  | 5.06 |  |  | 
22 | CCn1ncc(CN(C)C(=O)c2nc(-c3ccn(CCCN4CCCC4)n3)nc3ccc(Cl)cc23)c1C [Compound 184] |  |  | 3.79 |  | 4.82 |  |  | 
23 | CCn1ncc(CN(C)C(=O)c2nc(N3CCn4ncnc4C3)nc3ccc(Cl)cc23)c1C [Compound 190] | 4.70 |  | 3.99 | 4.70 |  |  |  | 
24 | CCn1ncc(CN(C)C(=O)c2nc(-c3cccc(Cl)c3)nc3cc(N4CCOCC4)c(Cl)cc23)c1C [Compound 200] |  | 3.72 | 3.90 |  |  | 4.70 |  | 
25 | CCn1ncc(CN(C)C(=O)c2nc(N3CCNCC3)nc3ccc(Cl)cc23)c1C [Compound 202] |  |  | 3.76 |  |  | 4.70 |  | 
26 | CCn1ncc(CN(C)C(=O)c2nc(-c3ccccc3Cl)nc3c(C#N)cccc23)c1C [Compound 211] |  | 4.49 | 4.77 |  |  |  | 4.82 | 
27 | CCn1ncc(CN(C)C(=O)c2nc(-c3cc(C(=O)NC)on3)nc3ccc(Cl)cc23)c1C [Compound 215] |  |  | 4.39 |  |  | 4.70 |  | 
28 | CCn1ncc(CN(C)C(=O)c2nc(-c3cn(CCNC)cn3)nc3ccc(Cl)cc23)c1C [Compound 228] |  |  | 3.85 |  |  | 4.70 |  | 4.70
29 | Cc1c(CN(C)C(=O)c2nc(-c3cc(Cl)cc(CNC4CCCCC4)c3)nc3ccc(Cl)cc23)cnn1CO [Compound 236] |  |  | 4.89 |  |  | 4.70 |  | 
30 | CCn1ncc(CN(C)C(=O)c2nc(-c3cnc(CNC(C)=O)n3C)nc3ccc(Cl)cc23)c1C [Compound 237] |  |  | 4.30 |  |  |  |  | 
31 | CCn1ncc(CN(C)C(=O)c2nc(-c3cn(CCCNC)cn3)nc3ccc(Cl)cc23)c1C [Compound 247] |  |  | 3.80 |  |  | 4.70 |  | 4.70
32 | Cc1n[nH]c(C)c1CN(C)C(=O)c1nc(-c2cccc(Cl)c2)nc2ccc(Cl)cc12 [Compound 248] |  |  | 3.94 |  |  | 4.70 |  | 4.72
33 | CCn1ncc(CN(C)C(=O)c2nc(-c3ccccc3Cl)nc3ccccc23)c1C [Compound 284] |  | 4.89 |  |  |  | 4.82 |  | 5.07
34 | CCn1ncc(CN(C)C(=O)c2cc(-c3cnn[nH]3)nc3ccc(Cl)cc23)c1C [Compound 307] |  |  | 5.10 |  |  |  |  | 
35 | CCn1ncc(CN(C)C(=O)c2nc(-c3cc(C(=O)NC)nn3C)nc3ccc(P(C)(C)=O)cc23)c1C [Compound 393] |  | 4.30 | 4.30 |  |  |  | 5.07 | 
36 | CCn1ncc(CN(C)C(=O)c2cc(-c3cc(C)nc(C)n3)nc3ccc(Cl)cc23)c1C [Compound 411] |  | 4.30 | 4.30 |  |  |  |  | 
37 | CCn1ncc(CN(C)C(=O)c2nc(-c3cc(C)c4cn[nH]c4c3)nc3ccc(Cl)cc23)c1C [Compound 412] |  |  | 6.89 |  |  | 6.60 |  | 6.82
38 | CCn1ncc(CN(C)C(=O)c2nc(-c3ccc(OCCNC(=O)C(C)C)c(Cl)c3)nc3ccc(Cl)cc23)c1C [Compound 416] |  |  | 6.74 |  |  | 6.40 |  | 6.40
39 | CCn1ncc(CN(C)C(=O)c2nc(-c3cc(C(=O)NC)n(C)n3)nc3ccc(COC)cc23)c1C [Compound 630] |  | 6.83 | 7.14 | 6.47 |  |  |  | 

— patent publication US20220144812A1, “QUINOLINE DERIVATIVES AND THEIR USE FOR THE TREATMENT OF CANCER” (Epizyme, Inc., priority 2019, published 2022)
